Source: patent publication US11779586B2, “Compounds comprising tricyclic heterocyclic compounds” (Convalife (Shanghai) Co. Limited, priority 2015, dated 2023)
Like-named read-outs stand apart in the source and are kept apart here.

Columns and labels:
[1] = Rodent pharmacokinetics: oral bioavailability and clearance, plasma PK; type: in vivo, mouse
Experimental: Formulation: 10% DMSO, 90% Saline Dosing: 10 mg/kg P.O. and 5 mg/kg I.V.
• Species=male mouse; • Strain=Balb/c; • 18 male mice were divided into two groups Group 1 (3 mg/kg; I.V.), Group 2 (10 mg/kg; P.O.) with each group comprising nine mice; • Blood samples (approximately 60 μL) were collected from retro orbital plexus under light isoflurane anesthesia such that the samples were obtained at pre-dose, 0.08, 0.25, 0.5, 1, 2, 4, 8 and 24 hr (I.V.) and pre-dose, 0.25, 0.5, 1, 2, 4, 6, 8 and 24 hr (P.O.); • The blood samples were collected from a set of three mice at each time point in labeled micro centrifuge tube containing K2EDTA as anticoagulant; • Plasma samples were separated by centrifugation of whole blood and stored below −70° C. until bioanalysis; • All samples were processed for analysis by protein precipitation using acetonitrile (ACN) and analyzed with fit for purpose LC/MS/MS method (LLOQ: 2.02 ng/mL); • Pharmacokinetic parameters were calculated using the non-compartmental analysis tool of Phoenix WinNonlin (Version 6.3). Formulation: Animals in Group 1 were administered intravenously with Example B solution formulation in 20% propylene glycol, 50% of PEG 400 and 30% of 20% βCD in water via tail vein at a dose of 3 mg/kg. Animals in Group 2 were administered with oral solution formulation of Example B in 20% propylene glycol, 50% of PEG 400 and 30% of 20% HPβCD in water at a dose of 10 mg/kg; Dosing: 10 mg/kg P.O. and 3 mg/kg I.V.
• Species=male mouse; • Strain=Balb/c; • 18 male mice were divided into two groups Group 1 (3 mg/kg; I.V.), Group 2 (10 mg/kg; P.O.) with each group comprising nine mice; • Blood samples (approximately 60 μL) were collected from retro orbital plexus under light isoflurane anesthesia such that the samples were obtained at pre-dose, 0.08, 0.25, 0.5, 1, 2, 4, 8 and 24 hr (I.V.) and pre-dose, 0.25, 0.5, 1, 2, 4, 6, 8 and 24 hr (P.O.); • The blood samples were collected from a set of three mice at each time point in labeled micro centrifuge tube containing K2EDTA as anticoagulant; • Plasma samples were separated by centrifugation of whole blood and stored below −70° C. until bioanalysis; • All samples were processed for analysis by protein precipitation using acetonitrile (ACN) and analyzed with fit for purpose LC/MS/MS method (LLOQ: 2.47 ng/mL); • Pharmacokinetic parameters were calculated using the non-compartmental analysis tool of Phoenix WinNonlin (Version 6.3). Formulation: Animals in Group 1 were administered intravenously with Example G solution formulation in 5% NMP, 5% solutol HS-15 in 90% HPβCD solution (20% HPβCD in RO water) at 3 mg/kg dose. Animals in Group 2 were administered orally with 10 mg/kg solution formulation of Example G in 5% NMP, 5% solutol HS-15 in 90% HPβCD solution (20% HPβCD in RO water) Dosing: 10 mg/kg P.O. and 3 mg/kg I.V.
• Species=male mouse; • Strain=CD1; • n=3 male mice per time point per route; • Terminal blood sampling at 8 time points (5 min, 10 min, 0.5 hr, 1 hr, 3 hr, 6 hr, 8 hr and, 24 hr); • Collection of plasma, bio-analysis and report of pharmacokinetic parameters. Formulation: 10% DMSO, 90% Saline Dosing: 10 mg/kg P.O. and 5 mg/kg I.V.

p110β/p110α = test: HTRF biochemical assay, class I PI3K isoforms (Reaction Biology Corp.): fold selectivity p110β/p110α; conditions: fold form selectivity
Description: (§1) Fold form selectivity inhibition data against class I PI3K isoforms, as determined using a HTRF biochemical assay conducted at Reaction Biology Corp., is listed below.

p110β/p110γ = test: HTRF biochemical assay, class I PI3K isoforms (Reaction Biology Corp.): fold selectivity p110β/p110γ; conditions: fold form selectivity
Description: as §1

p110δ/p110α = test: HTRF biochemical assay, class I PI3K isoforms (Reaction Biology Corp.): fold selectivity p110δ/p110α; conditions: fold form selectivity
p110δ/p110γ = test: HTRF biochemical assay, class I PI3K isoforms (Reaction Biology Corp.): fold selectivity p110δ/p110γ; conditions: fold form selectivity
[2] = in vivo, iv, male mouse, I.V. (5 mg/kg CD1: Example A, comparative; 3 mg/kg Balb/c: Examples B, G), mesylate salt, read-out: Clearance

| Structure (SMILES) | F ([1]; male, CD1, mouse, in vivo) [%] | clearance ([1]; male, mouse, in vivo, iv) [mL/min/kg] | Fold IC50 p110β/p110α (p110β/p110α) | Fold IC50 p110β/p110γ (p110β/p110γ) | Fold IC50 p110δ/p110α (p110δ/p110α) | Fold IC50 p110δ/p110γ (p110δ/p110γ) | clearance [1, 2] [mL/min/kg] | F ([1]; male Balb/c mouse, PO 10 mg/kg vs IV 3 mg/kg, 20% propylene glycol, 50% PEG 400, 30% of 20% HPβCD in water, mesylate salt) [%] | clearance ([1]; male, mouse, in vivo, summary table, mice, mesylate salts, read-out: Clearance) [mL/min/kg] | F ([1]; male Balb/c mouse, PO 10 mg/kg vs IV 3 mg/kg, 5% NMP, 5% solutol HS-15 in 90% HPβCD solution, mesylate salt) [%] |
| --- | --- | --- | --- | --- | --- | --- | --- | --- | --- | --- |
| c1cc(-c2nc(N3CCOCC3)c3oc4ncc(CN5C[C@@H]6C[C@H]5CO6)cc4c3n2)c2cc[nH]c2c1 [Example A, 4-(1H-Indol-4-yl)-6-(morpholin-4-yl)-12-[(1S,4S)-2-oxa-5-azabicyclo[2.2.1]heptan-5-ylmethyl]-8-oxa-3,5,10-triazatricyclo[7.4.0.0^2,7]trideca-1(13),2(7),3,5,9,11-hexaene] | 73.77 | 21 |  |  |  |  |  |  |  |  |
| c1cc(-c2nc(N3CCOCC3)c3oc4ncc(CN5CCC6(CC5)COC6)cc4c3n2)c2cc[nH]c2c1 [Example B, 4-(1H-Indol-4-yl)-6-(morpholin-4-yl)-12-{2-oxa-7-azaspiro[3.5]nonan-7-ylmethyl}-8-oxa-3,5,10-triazatricyclo[7.4.0.0^2,7]trideca-1(13),2(7),3,5,9,11-hexaene] |  |  | ** (** = >50×) | ** (** = >50×) | ** (** = >50×) | ** (** = >50×) | 33 | 74 | 33 |  |
| c1cc(-c2nc(N3CCOCC3)c3oc4ncc(CN5CC6CC[C@H](C5)O6)cc4c3n2)c2cc[nH]c2c1 (stereo in doubt) [Example C, 4-(1H-Indol-4-yl)-6-(morpholin-4-yl)-12-{8-oxa-3-azabicyclo[3.2.1]octan-3-ylmethyl}-8-oxa-3,5,10-triazatricyclo[7.4.0.0^2,7]trideca-1(13),2(7),3,5,9,11-hexaene] |  |  | * (* = ≥10× ≥ 50×) | ** (** = >50×) | ** (** = >50×) | ** (** = >50×) |  |  |  |  |
| c1cc(-c2nc(N3CCOCC3)c3oc4ncc(CN5CCC56COC6)cc4c3n2)c2cc[nH]c2c1 [Example G, 4-(1H-indol-4-yl)-6-(morpholin-4-yl)-12-{6-oxa-1-azaspiro[3.3]heptan-1-ylmethyl}-8-oxa-3,5,10-triazatricyclo[7.4.0.0^2,7]trideca-1(13),2(7),3,5,9,11-hexaene] |  |  | * (* = ≥10× ≥ 50×) | ** (** = >50×) | ** (** = >50×) | ** (** = >50×) | 26 |  |  | 30 |

The next lines start with results.

| F ([1]; male, CD1, mouse, in vivo) [%] | clearance ([1]; male, mouse, in vivo, iv) [mL/min/kg] | Fold IC50 p110β/p110α (p110β/p110α) | Fold IC50 p110β/p110γ (p110β/p110γ) | Fold IC50 p110δ/p110α (p110δ/p110α) | Fold IC50 p110δ/p110γ (p110δ/p110γ) | Structure (SMILES) | clearance [1, 2] [mL/min/kg] | F ([1]; male Balb/c mouse, PO 10 mg/kg vs IV 3 mg/kg, 20% propylene glycol, 50% PEG 400, 30% of 20% HPβCD in water, mesylate salt) [%] | clearance ([1]; male, mouse, in vivo, summary table, mice, mesylate salts, read-out: Clearance) [mL/min/kg] | F ([1]; male Balb/c mouse, PO 10 mg/kg vs IV 3 mg/kg, 5% NMP, 5% solutol HS-15 in 90% HPβCD solution, mesylate salt) [%] |
| --- | --- | --- | --- | --- | --- | --- | --- | --- | --- | --- |
|  |  | ** (** = >50×) | ** (** = >50×) | ** (** = >50×) | ** (** = >50×) | CN1CCC2(CCN(Cc3cnc4oc5c(N6CCOCC6)nc(-c6cccc7[nH]ccc67)nc5c4c3)CC2)C1 [Example D, 4-(1H-Indol-4-yl)-12-({2-methyl-2,8-diazaspiro[4.5]decan-8-yl}methyl)-6-(morpholin-4-yl)-8-oxa-3,5,10-triazatricyclo[7.4.0.0^2,7]trideca-1(13),2(7),3,5,9,11-hexaene] |  |  |  |  |
|  |  | ** (** = >50×) | ** (** = >50×) | ** (** = >50×) | ** (** = >50×) | CN1CCC2(CCN(Cc3cnc4oc5c(N6CCOCC6)nc(-c6cccc7[nH]ccc67)nc5c4c3)C2)C1 (stereo not drawn) [Example E, 4-(1H-Indol-4-yl)-12-({7-methyl-2,7-diazaspiro[4.4]nonan-2-yl}methyl)-6-(morpholin-4-yl)-8-oxa-3,5,10-triazatricyclo[7.4.0.0^2,7]trideca-1(13),2(7),3,5,9,11-hexaene] |  |  |  |  |
